Assay results as given in ChEMBL document CHEMBL5236587, “Discovery of oxazoline enhancers of cellular progranulin release” (Bioorg Med Chem Lett, 2023).
pEC50, pIC50: −log10 of the molar value.

Columns and labels:
[1] = Protein binding in mouse assessed as unbound fraction; format: ADME
[2] = Half life in mouse at 10 mg/kg, po; format: ADME, organism-based; conditions: in vivo
[3] = Metabolic stability in mouse hepatocytes assessed as intrinsic clearance; format: ADME, cell-based, Hepatocyte
[4] = Unbound Cmax in mouse at 10 mg/kg, po or 1 mg/kg, iv; format: ADME, organism-based; conditions: in vivo
[5] = target: Voltage-gated inwardly rectifying potassium channel KCNH2 (Homo sapiens, UniProt Q12809); experiment: Inhibition of human ERG; format: toxicity
Sequence of Voltage-gated inwardly rectifying potassium channel KCNH2 (Q12809 whole entry): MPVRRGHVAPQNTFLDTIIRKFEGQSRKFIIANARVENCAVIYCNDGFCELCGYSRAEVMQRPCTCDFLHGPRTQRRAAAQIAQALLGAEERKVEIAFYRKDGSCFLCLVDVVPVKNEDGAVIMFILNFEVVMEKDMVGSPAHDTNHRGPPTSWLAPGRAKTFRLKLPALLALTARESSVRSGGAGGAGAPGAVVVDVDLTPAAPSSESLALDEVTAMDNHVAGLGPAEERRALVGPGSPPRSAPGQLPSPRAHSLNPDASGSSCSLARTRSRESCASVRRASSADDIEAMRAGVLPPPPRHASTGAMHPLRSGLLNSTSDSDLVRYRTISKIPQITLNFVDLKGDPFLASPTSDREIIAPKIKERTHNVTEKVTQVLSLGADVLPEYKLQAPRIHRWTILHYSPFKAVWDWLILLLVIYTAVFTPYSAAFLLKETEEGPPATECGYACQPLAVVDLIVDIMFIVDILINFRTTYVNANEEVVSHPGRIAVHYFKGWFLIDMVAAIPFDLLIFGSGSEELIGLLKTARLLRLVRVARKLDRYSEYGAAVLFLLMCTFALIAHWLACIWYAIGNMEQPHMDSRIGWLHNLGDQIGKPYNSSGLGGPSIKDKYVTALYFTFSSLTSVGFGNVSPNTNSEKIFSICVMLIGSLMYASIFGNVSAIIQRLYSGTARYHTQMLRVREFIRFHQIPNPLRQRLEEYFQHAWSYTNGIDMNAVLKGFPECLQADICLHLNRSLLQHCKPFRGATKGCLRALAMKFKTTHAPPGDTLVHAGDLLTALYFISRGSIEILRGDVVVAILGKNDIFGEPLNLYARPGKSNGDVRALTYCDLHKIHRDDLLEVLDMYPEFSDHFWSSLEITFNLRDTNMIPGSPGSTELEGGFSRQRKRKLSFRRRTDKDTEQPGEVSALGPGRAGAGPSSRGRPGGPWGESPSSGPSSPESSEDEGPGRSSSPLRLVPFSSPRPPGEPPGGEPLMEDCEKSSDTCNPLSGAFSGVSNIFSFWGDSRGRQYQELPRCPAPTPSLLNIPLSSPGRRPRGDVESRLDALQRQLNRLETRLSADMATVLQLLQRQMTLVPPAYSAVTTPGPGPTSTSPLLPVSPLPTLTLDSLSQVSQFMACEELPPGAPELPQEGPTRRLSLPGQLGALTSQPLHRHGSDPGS

[6] = Induction of progranulin secretion in mouse BV-2 cells; format: functional, cell-based
[7] = Protein binding in human assessed as unbound fraction; format: ADME
[8] = Apparent permeability across apical to basolateral side in MDCK-MDR1 cells; format: ADME, cell-based, Canis lupus familiaris; conditions: dog
[9] = Volume of distribution at steady state in mouse at 10 mg/kg, po or 1 mg/kg, iv; format: ADME, organism-based; conditions: in vivo
[10] = Clearance in mouse at 10 mg/kg, po or 1 mg/kg, iv; format: ADME, organism-based; conditions: in vivo
[11] = Half life in mouse at 1 mg/kg, iv; format: ADME, organism-based; conditions: in vivo
[12] = Unbound brain to plasma partition coefficient in mouse at 10 mg/kg, po or 1 mg/kg, iv after 8 hrs; format: ADME, organism-based; conditions: read-out: K(p,uu,brain)
[13] = Bioavailability in mouse at 10 mg/kg, po or 1 mg/kg, iv; format: ADME, organism-based; conditions: in vivo
[14] = Metabolic stability in mouse hepatocytes assessed as half life measured upto 120 mins; format: ADME, cell-based, Hepatocyte
[15] = Metabolic stability in human hepatocytes assessed as half life measured upto 120 mins; format: ADME, cell-based, Hepatocyte
[16] = Protein binding in mouse brain assessed as unbound fraction; format: ADME, tissue-based
[17] = Efflux ratio of apparent permeability in MDCK-MDR1 cells; format: ADME, cell-based, Canis lupus familiaris; conditions: dog
[18] = Metabolic stability in human hepatocytes assessed as intrinsic clearance; format: ADME, cell-based, Hepatocyte
[19] = target: Muscarinic acetylcholine receptor M3 (Homo sapiens, UniProt P20309); experiment: Antagonist activity at M3 receptor (unknown origin)
Sequence of Muscarinic acetylcholine receptor M3 (P20309 whole entry): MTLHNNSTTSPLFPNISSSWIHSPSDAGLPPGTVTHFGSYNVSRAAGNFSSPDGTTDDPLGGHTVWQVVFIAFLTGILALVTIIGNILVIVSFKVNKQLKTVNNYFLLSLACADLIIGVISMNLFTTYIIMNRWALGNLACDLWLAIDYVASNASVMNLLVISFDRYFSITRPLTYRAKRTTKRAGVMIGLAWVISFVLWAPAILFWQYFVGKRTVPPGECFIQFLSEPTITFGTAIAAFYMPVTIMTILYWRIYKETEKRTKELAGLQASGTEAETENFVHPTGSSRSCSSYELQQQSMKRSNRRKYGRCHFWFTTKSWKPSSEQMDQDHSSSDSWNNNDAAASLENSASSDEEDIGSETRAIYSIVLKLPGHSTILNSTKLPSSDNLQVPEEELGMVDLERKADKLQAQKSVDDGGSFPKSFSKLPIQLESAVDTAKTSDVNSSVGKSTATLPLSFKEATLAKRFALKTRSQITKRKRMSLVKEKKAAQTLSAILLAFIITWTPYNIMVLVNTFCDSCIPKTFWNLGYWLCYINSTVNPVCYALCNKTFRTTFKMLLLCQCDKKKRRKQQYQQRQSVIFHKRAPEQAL

Structure (SMILES)	fraction unbound [1]	half-life [2] [h]	CLH [3] [µL/min/mg]	fCmax [4] [nM]	pIC50 [5]	pEC50 [6]	fraction unbound [7]	Papp A→B [8] [×10⁻⁶ cm/s]	Vdss [9] [L/kg]	CL [10] [mL/min/kg]	half-life [11] [h]	Kp uu at 8 h [12]	bioavailability [13] [%]	half-life [14] [h]	half-life [15] [h]	fraction unbound [16]	efflux ratio [17]	CLH [18] [µL/min/mg]	pEC50 [19]
OCCN1CC[C@@]2(CN=C(N3CCc4ccccc4[C@@H]3c3ccc(F)cc3)O2)C1	0.091	3.3	22.25	8	5.36	6.50	0.151	2.2	18.5	129	2.1	3.84	6.1	0.517	> 2	0.042	1.52	< 14.7	
O=C(O[C@H]1CN2CCC1CC2)N1CCc2ccccc2[C@@H]1c1ccc(F)cc1					6.47	6.59													4.77
Fc1ccc([C@H]2c3ccccc3CCN2C2=NC[C@@H](C3(F)CNC3)O2)cc1	0.021	2.6	< 68.2	11	5.44	6.88	0.068	0.87	12.2	89.3	2.2	8.33	38	> 2	> 2	0.01	1.07	< 14.7	
Fc1ccc([C@H]2c3ccccc3CCN2C2=N[C@H](C3(F)CNC3)CO2)cc1	0.031	4.8	< 68.2	62	5.51	7.08	0.055	0.53	15.2	34.7	7.4	2.91	99	> 2	> 2	0.009	1.11	< 14.7	
Fc1ccc([C@H]2c3ccccc3CCN2C2=NC[C@@H](C3CN4CCC3CC4)O2)cc1 (some centres not stated)	0.056	11.4	147.03	6	6.16	6.66	0.141	3.07	38.8	156	4.17	2.7	25	0.0785	0.242	0.02	2.12	47.79	
O=C(O[C@H]1CN2CCC1CC2)N1CCc2ccccc2[C@@H]1c1ccccc1 [SOLIFENACIN]						5.89													7.62
